Experimental data: patent US7727753B2, “Plant dihydroorotase” (BASF Aktiengesellschaft, priority 1999, dated 2010)

System: potato dihydroorotase
Experiment: Measurement of the dihydroorotase activity (dihydroorotate-dehydrogenase-coupled photometric assay at 340 nm, or colorimetric assay)
Format: biochemical, Solanum tuberosum
Conditions: activity measured in the assay systems described; recombinant enzyme expressed in E. coli
Source text: The enzymatic detection developed to date for measuring the dihydroorotase activity by the method of Mazus and Buchowicz, (Acta Biochimica Polonica (1968), 15(4), 317-325) is based on detecting the orotate formed at 280 nm in a dihydroorotate-dehydrogenase-coupled reaction mixture. Prerequisite for doing so is a high activity of the auxiliary enzyme, viz. dihydroorotate dehydrogenase. […] In order to be able to carry out a mass screening, the specific dihydroorotate dehydrogenase activity must be at least ten times higher than is the case in the commercial preparation. […] The enzyme activity was determined in a photometric assay by measurement in a photometer (Uvikon 933, Kontron) at 340 nm. […] In each case […] of the resulting enzyme fraction was made up with buffer to […] and measured against a reference cell containing […] reaction buffer and 100 ml of a protein homogenate of untransformed E. coli culture. […] Identical quantities of total protein were employed for measuring the untransformed or transformed E. coli extracts. […] Alternatively, the dihydroorotase may also be measured in a less sensitive colorimetric assay by the method of Prescott and Jones (Anal. Biochem. (1969) 32, 408-419) without being coupled to dihydroorotate dehydrogenase. […]

Row | SMILES | potato dihydroorotase activity
1 | O=C1NC(C(=O)O)=CC(C(=O)O)N1 (centres unmarked) [2-oxo-1,2,3,6-tetrahydropyrimidine-4,6-dicarboxylate] | can be reduced
2 | O=C1NC(=S)C[C@@H](C(=O)O)N1 [6-L-thiodihydroorotate] | can be reduced
